Experimental data taken from patent US20250144220A1, “CONJUGATE FOR PREVENTING AND TREATING VIRAL INFECTIONS AND USE THEREOF” (priority 2021, published 2025).
Read-outs that look alike come from different tables or passages of the source.

What was measured:
IFV B/Lee/40 = experiment: microbe, parasite or virus in culture; format: cell-based; conditions: unidentified influenza virus, 120 h
[1] = test system: IFV A/California/2/2014 (H3N2); experiment: microbe, parasite or virus in culture; format: cell-based; conditions: Influenza A virus, 120 h
H1N1(A/PR/8/34) virus = experiment: microbe, parasite or virus in culture; format: cell-based; conditions: Influenza A virus, 96 h
in vitro = format: cell-based; conditions: dog
Procedure: • Toxicity of the tested compounds to MDCK cells was quantified by MDCK cell lines. […] The cell control without compound was also configured. The cells were incubated in an incubator for 4 days. • 4) 50 μL of Cell-titer Glo was added to each well, and the chemiluminescence was detected by a Microplate Reader. Inhibition rate=(average value of cell control−value of tested compounds)/average value of cell control […]

[2] = biological target: Influenza A H1N1 (A/California/04/2009) Neuraminidase/NA (Influenza A virus (A/California/04/2009(H1N1)), UniProt C3W5S3); experiment: biochemical; conditions: neuraminidase 1 U/ml
B/YZ29/2019 (Victoria) = experiment: microbe, parasite or virus in culture; format: cell-based; conditions: unidentified influenza virus, MDCK cells, 72 hours
[3] = test system: A/Chicken/Jiangsu/k0402/2010 (H5N1); experiment: microbe, parasite or virus in culture; format: cell-based; conditions: Influenza A virus, H5N1, MDCK, 72 h
[4] = test system: B/Jiangsu/YZ08/2018 (Yamagata); experiment: microbe, parasite or virus in culture; format: cell-based; conditions: unidentified influenza virus, MDCK cells, 72 hours
[5] = test system: A/Chicken/Eastern/JTC11/2013 (H7N9); experiment: microbe, parasite or virus in culture; format: cell-based; conditions: Influenza A virus, H7N9, MDCK, 72 h
H1N1(A/PR/8/34) = experiment: microbe, parasite or virus in culture; format: cell-based, influenza virus H1N1(A/PR/8/34); conditions: Influenza A virus, MDCK, 96 h
[6] = MDCK cells, H1N1(A/PR/8/34), 4 days, Cell-titer Glo
[7] = IFV B/Lee/40, MDCK cells, 5 days, read-out: EC50
[8] = IFV A/California/2/2014 (H3N2), MDCK cells, 5 days, read-out: EC50

Compound `O=C1c2c(O)c(=O)ccn2N([C@@H]2c3ccccc3SCc3c2ccc(F)c3F)[C@@H]2COCCN12` [Baloxavir, baloxivir] has an EC50 (IFV B/Lee/40; MDCK) of 1.47 nM and an EC50 ([1]; H3N2, MDCK) of 0.00039 µM.

Compound `C#CCOCCOCCOCCOCCOC(=O)N(CCOCCN(C)C(=O)O[C@@H]([C@@H]1OC(C(=O)O)=C[C@H](NC(=N)N)[C@H]1NC(C)=O)[C@H](O)CO)CCOCCN(C)C(=O)O[C@@H]([C@@H]1OC(C(=O)O)=C[C@H](NC(=N)N)[C@H]1NC(C)=O)[C@H](O)CO` [C-Inter-1] has an EC50 (H1N1(A/PR/8/34) virus; [6]) of 0.28 nM, a CC50 at 4 days (in vitro) greater than 100 µM and an IC50 [2] of 10.4 nM.

`C#CCOCCOCCOCCOCCNC(=O)N(CCOCCN(C)C(=O)O[C@@H]([C@@H]1OC(C(=O)O)=C[C@H](NC(=N)N)[C@H]1NC(C)=O)[C@H](O)CO)CCOCCN(C)C(=O)O[C@@H]([C@@H]1OC(C(=O)O)=C[C@H](NC(=N)N)[C@H]1NC(C)=O)[C@H](O)CO` [C-Inter-2] showed an EC50 (H1N1(A/PR/8/34) virus; [6]) of 0.42 nM, a CC50 at 4 days (in vitro) greater than 100 µM and an IC50 [2] of 14.2 nM.

Compound `C#CCOCCOCCOCCN1CCC(N(CCOCCN(C)C(=O)O[C@@H]([C@@H]2OC(C(=O)O)=C[C@H](NC(=N)N)[C@H]2NC(C)=O)[C@H](O)CO)CCOCCN(C)C(=O)O[C@@H]([C@@H]2OC(C(=O)O)=C[C@H](NC(=N)N)[C@H]2NC(C)=O)[C@H](O)CO)CC1` [C-Inter-3] has an EC50 (H1N1(A/PR/8/34) virus; [6]) of 0.39 nM, a CC50 at 4 days (in vitro) greater than 100 µM and an IC50 [2] of 21.3 nM.

With `C#CCOCCOCCOCCN1CCN(C(=O)N(CCOCCN(C)C(=O)O[C@@H]([C@@H]2OC(C(=O)O)=C[C@H](NC(=N)N)[C@H]2NC(C)=O)[C@H](O)CO)CCOCCN(C)C(=O)O[C@@H]([C@@H]2OC(C(=O)O)=C[C@H](NC(=N)N)[C@H]2NC(C)=O)[C@H](O)CO)CC1` [C-Inter-4] the IC50 [2] was 48.7 nM.

For `C#CCOCCOCCOCCOC1CCN(C(=O)N(CCOCCN(C)C(=O)O[C@@H]([C@@H]2OC(C(=O)O)=C[C@H](NC(=N)N)[C@H]2NC(C)=O)[C@H](O)CO)CCOCCN(C)C(=O)O[C@@H]([C@@H]2OC(C(=O)O)=C[C@H](NC(=N)N)[C@H]2NC(C)=O)[C@H](O)CO)CC1` [C-Inter-5], the EC50 (H1N1(A/PR/8/34) virus; [6]) was 0.45 nM, the CC50 at 4 days (in vitro) was greater than 100 µM and the IC50 [2] was 37 nM.

With `C#CCOCCOCCOCCOCCN(C)C(=O)N(CCOCCN(C)C(=O)O[C@@H]([C@@H]1OC(C(=O)O)=C[C@H](NC(=N)N)[C@H]1NC(C)=O)[C@H](O)CO)CCOCCN(C)C(=O)O[C@@H]([C@@H]1OC(C(=O)O)=C[C@H](NC(=N)N)[C@H]1NC(C)=O)[C@H](O)CO` [C-Inter-6] the EC50 (H1N1(A/PR/8/34) virus; [6]) was 0.25 nM, the CC50 at 4 days (in vitro) was greater than 100 µM and the IC50 [2] was 11.9 nM.

`C#CCOCCOCCOCCOCCNS(=O)(=O)N(CCOCCN(C)C(=O)O[C@@H]([C@@H]1OC(C(=O)O)=C[C@H](NC(=N)N)[C@H]1NC(C)=O)[C@H](O)CO)CCOCCN(C)C(=O)O[C@@H]([C@@H]1OC(C(=O)O)=C[C@H](NC(=N)N)[C@H]1NC(C)=O)[C@H](O)CO` [C-Inter-7] showed an EC50 (H1N1(A/PR/8/34) virus; [6]) of 0.57 nM, a CC50 at 4 days (in vitro) greater than 100 µM and an IC50 [2] of 7.64 nM.

With `C#CCOCCOCCOCCNC(=N)N(CCOCCN(C)C(=O)O[C@@H]([C@@H]1OC(C(=O)O)=C[C@H](NC(=N)N)[C@H]1NC(C)=O)[C@H](O)CO)CCOCCN(C)C(=O)O[C@@H]([C@@H]1OC(C(=O)O)=C[C@H](NC(=N)N)[C@H]1NC(C)=O)[C@H](O)CO` [C-Inter-10] the EC50 (H1N1(A/PR/8/34) virus; [6]) was 0.39 nM, the CC50 at 4 days (in vitro) was greater than 100 µM and the IC50 [2] was 10.8 nM.

Compound `CCC(CC)O[C@@H]1C=C(C(=O)O)C[C@H](N)[C@H]1NC(C)=O` [Oseltamivir acid] has an EC50 (IFV B/Lee/40; [7]) of 801 nM, an EC50 (B/YZ29/2019 (Victoria)) of 710 nM and an EC50 [1, 8] greater than 100 µM. The EC50 [3] was 210 nM, the EC50 [4] was 780 nM and the EC50 [5] was 540 nM.

For `CC(=O)N[C@H]1[C@H]([C@H](O)[C@H](O)CO)OC(C(=O)O)=C[C@@H]1N=C(N)N` [Zanamivir, zanamivir, reference compound], the EC50 (H1N1(A/PR/8/34) virus; MDCK) was 39.7 nM, the EC50 (IFV B/Lee/40; [7]) was 57.5 nM and the EC50 (B/YZ29/2019 (Victoria)) was 59 nM. It also gave a CC50 (in vitro) greater than 100 µM, an EC50 [1, 8] greater than 10 µM and an EC50 (H1N1(A/PR/8/34)) of 45.7 nM. It also gave an EC50 [4] of 90 nM.
